≈ marks a conversion by molar mass, not a printed value.
What was measured:
MRSA (13B262) = experiment: MIC, broth microdilution (CLSI), clinical isolate; assay type: cell-based; details: Staphylococcus aureus
Description: (§1) 6 standard strains and 3 clinical isolates were used to the preliminary evaluation of in vitro antibacterial activities of oxazolidinone-fluoroquinolone hybrids. For the further evaluation of hybrids OBP-4 and OBP-5, 263 clinical isolates including S. aureus (46), S. haemolyticus(32), S. epidermidis (10), E. faecalis (72), E. faecium (47), S. pneumoniae (13), H. parasuis (34), S. suis (9), and 8 resistant strains including MRSA, MRSE, CIP-resistant S. aureus and S. haemolyticus, VAN and quinolone-resistant S. pneumoniae, LZD-resistant E. faecalis, LZD/VAN and quinolone-resistant E. faecium were collected and tested.
(§2) Susceptibility testing of oxazolidinone-fluoroquinolone hybrids against various bacteria was performed by the broth microdilution method as outlined by the Clinical and Laboratory Standards Institute (CLSI). Three types of media, including cation-adjusted Mueller Hinton broth, Haemophilus Test Medium and cation-adjusted Mueller Hinton broth that contained 3%–5% lysed horse blood, were used to culture the corresponding bacteria. All compounds including comparator drugs were dissolved in an appropriate solvent at a concentration of 2.048 mg/mL and then serially diluted two-fold to provide the required concentrations. A final inoculum of 5 × 10^5 CFU/mL was used and plates were read after incubation for 16–24 h at 35 °C. […] Standard quality control strains (ATCC) were included throughout. Each determination was repeated in triplicate.

[1] = tested on: S. agalactiae^R (13B317), levofloxacin-resistant S. agalactiae; experiment: MIC, broth microdilution (CLSI), clinical isolate; assay type: cell-based; details: Streptococcus agalactiae; levofloxacin-resistant S. agalactiae (13B317)
Description: as §1, §2

E. coli (ATCC25922) = experiment: MIC, broth microdilution (CLSI), standard strain; assay type: cell-based; details: Escherichia coli; E. coli (ATCC25922); read-out: MIC
Description: as §1, §2

E. faecalis (ATCC29212) = experiment: MIC, broth microdilution (CLSI), standard strain; assay type: cell-based; details: Enterococcus faecalis; E. faecalis (ATCC29212); read-out: MIC
Description: as §1, §2

[2] = tested on: H. influenzae (ATCC49247); experiment: MIC, broth microdilution (CLSI), standard strain; assay type: cell-based; details: Haemophilus influenzae
Description: as §1, §2

[3] = tested on: P. Aeruginosa (ATCC27853); experiment: MIC, broth microdilution (CLSI), standard strain; assay type: cell-based; details: Pseudomonas aeruginosa; P. Aeruginosa (ATCC27853); read-out: MIC
Description: as §1, §2

S. aureus (ATCC29213) = experiment: MIC, broth microdilution (CLSI), standard strain; assay type: cell-based; details: Staphylococcus aureus
Description: as §1, §2

[4] = tested on: S. pneumoniae (ATCC49619); experiment: MIC, broth microdilution (CLSI), standard strain; assay type: cell-based; details: Streptococcus pneumoniae
Description: as §1, §2

[5] = tested on: S. aureus (46) clinical isolates; experiment: Susceptibility of clinical isolates (MIC); assay type: cell-based, Staphylococcus aureus; details: for Cumulative % of strains inhibited at MIC / No. of strains inhibited at MIC: S. aureus (46)
Protocol: as §2, with “All compounds including comparator drugs were dissolved in an appropriate solvent at a concentration of 2.048 mg/mL and then serially diluted two-fold to provide the required concentrations.” left out

[6] = tested on: S. pneumoniae (13) clinical isolates; experiment: Susceptibility of clinical isolates (MIC); assay type: cell-based, Streptococcus pneumoniae; details: for Cumulative % of strains inhibited at MIC / No. of strains inhibited at MIC: S. pneumoniae (13)
Protocol: as §2, with “All compounds including comparator drugs were dissolved in an appropriate solvent at a concentration of 2.048 mg/mL and then serially diluted two-fold to provide the required concentrations.” left out

[7] = tested on: E. faecalis (72) clinical isolates; experiment: Susceptibility of clinical isolates (MIC); assay type: cell-based, Enterococcus faecalis; details: for Cumulative % of strains inhibited at MIC / No. of strains inhibited at MIC: E. faecalis (72)
Protocol: as §2, with “All compounds including comparator drugs were dissolved in an appropriate solvent at a concentration of 2.048 mg/mL and then serially diluted two-fold to provide the required concentrations.” left out

[8] = tested on: E. faecium (47) clinical isolates; experiment: Susceptibility of clinical isolates (MIC); assay type: cell-based, Enterococcus faecium; details: for Cumulative % of strains inhibited at MIC / No. of strains inhibited at MIC: E. faecium (47)
Protocol: as §2, with “All compounds including comparator drugs were dissolved in an appropriate solvent at a concentration of 2.048 mg/mL and then serially diluted two-fold to provide the required concentrations.” left out

[9] = tested on: H. parasuis (34) clinical isolates; experiment: Susceptibility of clinical isolates (MIC); assay type: cell-based, Haemophilus parasuis; details: for Cumulative % of strains inhibited at MIC / No. of strains inhibited at MIC: H. parasuis (34)
Protocol: as §2, with “All compounds including comparator drugs were dissolved in an appropriate solvent at a concentration of 2.048 mg/mL and then serially diluted two-fold to provide the required concentrations.” left out

[10] = tested on: LZD-resistant E. faecalis; experiment: microbe, parasite or virus in culture; assay type: cell-based; details: Enterococcus faecalis
Protocol: (§3) 6 standard strains and 3 clinical isolates were used to the preliminary evaluation of in vitro antibacterial activities of oxazolidinone-fluoroquinolone hybrids.
as §2, with “All compounds including comparator drugs were dissolved in an appropriate solvent at a concentration of 2.048 mg/mL and then serially diluted two-fold to provide the required concentrations.” left out

CIP-resistant S. aureus = experiment: MIC against drug-resistant strain; assay type: cell-based; details: Staphylococcus aureus; S. aureus, CIP-resistant; read-out: MIC
Protocol: as §3
as §2, with “All compounds including comparator drugs were dissolved in an appropriate solvent at a concentration of 2.048 mg/mL and then serially diluted two-fold to provide the required concentrations.” left out

[11] = tested on: CIP-resistant S. haemolyticus; experiment: MIC against drug-resistant strain; assay type: cell-based; details: Staphylococcus haemolyticus; S. haemolyticus, CIP-resistant; read-out: MIC
Protocol: as §3
as §2, with “All compounds including comparator drugs were dissolved in an appropriate solvent at a concentration of 2.048 mg/mL and then serially diluted two-fold to provide the required concentrations.” left out

[12] = tested on: LZD and quinolone-resistant E. faecium; experiment: MIC against drug-resistant strain; assay type: cell-based; details: Enterococcus faecium; E. faecium, LZD and quinolone-resistant; read-out: MIC
Protocol: as §3
as §2, with “All compounds including comparator drugs were dissolved in an appropriate solvent at a concentration of 2.048 mg/mL and then serially diluted two-fold to provide the required concentrations.” left out

MRSA = experiment: MIC against drug-resistant strain; assay type: cell-based; details: Staphylococcus aureus, read-out: MIC
Protocol: as §3
as §2, with “All compounds including comparator drugs were dissolved in an appropriate solvent at a concentration of 2.048 mg/mL and then serially diluted two-fold to provide the required concentrations.” left out

[13] = tested on: VAN and quinolone-resistant E. faecium; experiment: MIC against drug-resistant strain; assay type: cell-based; details: Enterococcus faecium; E. faecium, VAN and quinolone-resistant; read-out: MIC
Protocol: as §3
as §2, with “All compounds including comparator drugs were dissolved in an appropriate solvent at a concentration of 2.048 mg/mL and then serially diluted two-fold to provide the required concentrations.” left out

[14] = Enterococcus faecalis, E. faecalis, 72 clinical isolates

C[C@H]1CCc2c(N3CCC(O)(COc4ccc(N5C[C@H](CO)OC5=O)cc4F)CC3)c(F)cc3c(=O)c(C(=O)O)cn1c23 [OBP-4]
MIC (MRSA (13B262)): 0.5 µg/mL (≈ 0.834 µM)
MIC [1]: 0.031 µg/mL (≈ 0.0517 µM)
MIC (E. coli (ATCC25922)): 4 µg/mL (≈ 6.67 µM)
MIC (E. faecalis (ATCC29212)): 0.25 µg/mL (≈ 0.417 µM)
MIC [2]: 0.25 µg/mL (≈ 0.417 µM)
MIC [3]: 64 µg/mL (≈ 107 µM)
MIC (S. aureus (ATCC29213)): 0.016 µg/mL (≈ 0.0267 µM)
MIC [4]: 0.031 µg/mL (≈ 0.0517 µM)
Cumulative % of strains inhibited at MIC ([5]; MIC 0.125 µg/mL): 93.5%
No. of strains inhibited at MIC ([5]; MIC 0.125 µg/mL): 17
Cumulative % of strains inhibited at MIC ([5]; MIC […]): 100.0%
No. of strains inhibited at MIC ([5]; MIC […]): 3
Cumulative % of strains inhibited at MIC ([5]; MIC ≤[…]): 56.5%
No. of strains inhibited at MIC ([5]; MIC ≤[…]): 26
MIC50 ([5]; Staphylococcus aureus, S. aureus, 46 clinical isolates, read-out: MIC50): ≤ 0.0625 µg/mL
MIC90 ([5]; Staphylococcus aureus, S. aureus, 46 clinical isolates, read-out: MIC90): 0.125 µg/mL (≈ 0.208 µM)
MIC ([5]; Staphylococcus aureus, S. aureus, 46 clinical isolates, read-out: MIC Range): 0.0625 to 0.25 µg/mL (≈ 0.104 to 0.417 µM)
Cumulative % of strains inhibited at MIC ([6]; MIC 0.125 µg/mL): 38.5%
No. of strains inhibited at MIC ([6]; MIC 0.125 µg/mL): 3
Cumulative % of strains inhibited at MIC ([6]; MIC 0.5 µg/mL): 100.0%
No. of strains inhibited at MIC ([6]; MIC 0.5 µg/mL): 1
Cumulative % of strains inhibited at MIC ([6]; MIC […]): 92.3%
No. of strains inhibited at MIC ([6]; MIC […]): 7
Cumulative % of strains inhibited at MIC ([6]; MIC ≤[…]): 15.4%
No. of strains inhibited at MIC ([6]; MIC ≤[…]): 2
MIC Range ([6]; S. pneumoniae, 13 clinical isolates): ≤0.0625 to 0.5 µg/mL
MIC50 ([6]; Streptococcus pneumoniae, S. pneumoniae, 13 clinical isolates, read-out: MIC50): 0.25 µg/mL (≈ 0.417 µM)
MIC90 ([6]; Streptococcus pneumoniae, S. pneumoniae, 13 clinical isolates, read-out: MIC90): 0.25 µg/mL (≈ 0.417 µM)
Cumulative % of strains inhibited at MIC ([7]; MIC 0.125 µg/mL): 36.1%
No. of strains inhibited at MIC ([7]; MIC 0.125 µg/mL): 17
Cumulative % of strains inhibited at MIC ([7]; MIC 0.5 µg/mL): 98.6%
No. of strains inhibited at MIC ([7]; MIC 0.5 µg/mL): 2
Cumulative % of strains inhibited at MIC ([7]; MIC 1 µg/mL): 100.0%
No. of strains inhibited at MIC ([7]; MIC 1 µg/mL): 1
Cumulative % of strains inhibited at MIC ([7]; MIC […]): 95.8%
No. of strains inhibited at MIC ([7]; MIC […]): 43
Cumulative % of strains inhibited at MIC ([7]; MIC ≤[…]): 12.5%
No. of strains inhibited at MIC ([7]; MIC ≤[…]): 9
fold higher activity than comparator agents ([7]; E. faecalis clinical isolates): 2- to 16 fold
MIC Range ([7]; E. faecalis, 72 clinical isolates): ≤0.0625 to 1 µg/mL
MIC50 [7, 14]: 0.25 µg/mL (≈ 0.417 µM)
MIC90 [7, 14]: 0.25 µg/mL (≈ 0.417 µM)
Cumulative % of strains inhibited at MIC ([8]; MIC 0.5 µg/mL): 95.7%
No. of strains inhibited at MIC ([8]; MIC 0.5 µg/mL): 37
Cumulative % of strains inhibited at MIC ([8]; MIC 1 µg/mL): 97.9%
No. of strains inhibited at MIC ([8]; MIC 1 µg/mL): 1
Cumulative % of strains inhibited at MIC ([8]; MIC 2 µg/mL): 100.0%
No. of strains inhibited at MIC ([8]; MIC 2 µg/mL): 1
No. of strains inhibited at MIC ([8]; MIC […]): 8
fold higher activity than comparator agents ([8]; E. faecium clinical isolates): 16- to 128 fold
MIC Range ([8]; E. faecium, 47 clinical isolates): 0.25 to 2 µg/mL
MIC50 ([9]; Glaesserella parasuis, H. parasuis, 34 clinical isolates, read-out: MIC50): 1 µg/mL (≈ 1.67 µM)
MIC90 ([9]; Glaesserella parasuis, H. parasuis, 34 clinical isolates, read-out: MIC90): 4 µg/mL (≈ 6.67 µM)
Cumulative % of strains inhibited at MIC ([9]; MIC 0.5 µg/mL): 35.3%
No. of strains inhibited at MIC ([9]; MIC 0.5 µg/mL): 5
Cumulative % of strains inhibited at MIC ([9]; MIC 1 µg/mL): 61.8%
No. of strains inhibited at MIC ([9]; MIC 1 µg/mL): 9
Cumulative % of strains inhibited at MIC ([9]; MIC 2 µg/mL): 79.4%
No. of strains inhibited at MIC ([9]; MIC 2 µg/mL): 6
Cumulative % of strains inhibited at MIC ([9]; MIC 4 µg/mL): 100.0%
No. of strains inhibited at MIC ([9]; MIC 4 µg/mL): 7
Cumulative % of strains inhibited at MIC ([9]; MIC […]): 20.6%
No. of strains inhibited at MIC ([9]; MIC […]): 3
Cumulative % of strains inhibited at MIC ([9]; MIC ≤[…]): 11.8%
No. of strains inhibited at MIC ([9]; MIC ≤[…]): 4
MIC Range ([9]; H. parasuis, 34 clinical isolates): ≤0.0625 to 4 µg/mL
MIC [10]: 1 µg/mL (≈ 1.67 µM)
MIC (CIP-resistant S. aureus): 0.125 µg/mL (≈ 0.208 µM)
MIC [11]: 0.5 µg/mL (≈ 0.834 µM)
MIC [12]: 0.5 µg/mL (≈ 0.834 µM)
MIC (MRSA): 0.25 µg/mL (≈ 0.417 µM)
MIC [13]: 0.5 µg/mL (≈ 0.834 µM)
